# Data from US11160816B2, “Composition for treatment of Alzheimer's disease” (GLOVIA COMPANY LIMITED, priority 2017, dated 2021).
# Key:
# [1] = system: mild to moderate Alzheimer patients; settings: 400 mg capsule 3 times per day for 180 days; cited from earlier work
# stroke patients = settings: cited from earlier work
# [2] = system: oligodendrocyte precursor cells (OPCs); experiment: Cultivation of oligodendrocyte precursor cells, phase-contrast observation of proliferation and differentiation (FIG. 2); format: cell-based, mice; settings: final concentration of each 10 μM, cultivated for 48 hours, compared with control (PBS alone)
# [3] = system: oligodendrocyte precursor cells (OPCs); experiment: O1 antibody immunostaining of cultivated OPCs, ratio of O1 positive oligodendrocytes (FIG. 3); format: cell-based, mice; settings: final concentration of each 0.1 mM, 48 hours, compared with control
# [4] = system: oligodendrocyte progenitor cell; settings: cultivation in the presence of the substance; cited from earlier work
# [5] = stroke patients, nonpatent document 6
SMILES,cognitive function [1],"cognitive abilities (stroke patients; 1000 mg per day for 28 days, then oral 400 mg per day for 5 months, 2,044 stroke patients)","harmful adverse drug reactions, share of patients (stroke patients; [5]) [%]","headache, share of patients (stroke patients; [5]) [%]","heartburn, share of patients (stroke patients; [5]) [%]","insomnia/agitation, share of patients (stroke patients; [5]) [%]",patients who hoped for stop of treatment (stroke patients; [5]) [%],"vomiturition/emesis, share of patients (stroke patients; [5]) [%]",proliferation and differentiation of OPCs (phase-contrast photos) [2],ratio of O1 positive oligodendrocytes against the number of total cells [3],"generation of p-21.5kDaMBP, proliferation and differentiation of oligodendrocyte progenitor cell [4]"
"C[N+](C)(C)CCOP(=O)([O-])OC[C@H](O)CO [α-GPC, L-α-glycerylphosphorylcholine]",improving effect on cognitive function,recovery of the patients' cognitive abilities,2.14,0.2,0.7,0.4,0.7,0.5,proliferation and differentiation of OPCs proceeds,hardly increases compared with the control,
C[C@@H]1O[C@@H](OC[C@H]2O[C@@H](Oc3cc(O)c4c(c3)O[C@H](c3ccc(O)cc3)CC4=O)[C@H](O)[C@@H](O)[C@@H]2O)[C@H](O)[C@H](O)[C@H]1O [narirutin],,,,,,,,,proliferation and differentiation of OPCs proceeds,,promoted the generation of p-21.5kDaMBP
COc1ccc([C@@H]2CC(=O)c3c(O)cc(O[C@@H]4O[C@H](CO[C@@H]5O[C@@H](C)[C@H](O)[C@@H](O)[C@H]5O)[C@@H](O)[C@H](O)[C@H]4O)cc3O2)cc1O [hesperidin],,,,,,,,,proliferation and differentiation of OPCs proceeds,,promoted the generation of p-21.5kDaMBP
